# According to ChEMBL document CHEMBL1127163, “Anilide tertiary carbinols: A new structural class of potent potassium channel openers” (Bioorg Med Chem Lett, 1993):
# Tests used:
# Cavia porcellus [1] = species: Cavia porcellus; experiment: The compound was tested for […] activity against guinea pig vascular tissue (portal vein) strip mildly depolarized with 15 mM KCl; format: functional
# Cavia porcellus [2] = species: Cavia porcellus; experiment: The compound was tested for […] activity against guinea pig detrusor (bladder) strip mildly depolarized with 15 mM KCl; format: functional
# Cavia porcellus [3] = species: Cavia porcellus; experiment: Tested for percent increase in efflux rate constant with 54.6 uM of compound using guinea pig detrusor; format: functional
# Cavia porcellus [4] = species: Cavia porcellus; experiment: Tested for relaxant activity of compound with 80 mM KCl; format: functional
# [5] = Tested for dissociation constant of compound at PH of 7.4; format: ADME; conditions: pH 7.4
Structure (SMILES),IC50 (Cavia porcellus [1]) [nM],IC50 (Cavia porcellus [2]) [nM],IC50 (Cavia porcellus [4]) [nM],pKa [5],Increase (Cavia porcellus [3]) [%]
"CC1(C)Oc2ccc(C#N)cc2[C@H](N2CCCC2=O)[C@H]1O (single isomer, unassigned) [(-)-CROMAKALIM]",20,570,,,
CC(O)(C(=O)Nc1ccc(S(=O)(=O)c2ccncc2)cc1)C(F)(F)F (racemic),,3800,,,
C[C@](O)(C(=O)Nc1ccc(S(=O)(=O)c2ccncc2)cc1)C(F)(F)F,,1600,260000,,40

# More lines, main results first:
IC50 (Cavia porcellus [1]) [nM],IC50 (Cavia porcellus [2]) [nM],IC50 (Cavia porcellus [4]) [nM],pKa [5],Structure (SMILES),Increase (Cavia porcellus [3]) [%]
,> 30000,,,C[C@@](O)(C(=O)Nc1ccc(S(=O)(=O)c2ccncc2)cc1)C(F)(F)F,
3,70,,7.5,O=C(c1ccc(NC(=O)C(O)(C(F)F)C(F)F)cc1)c1ccccn1,
